From ChEMBL document CHEMBL5579839, “Discovery of new cyclopropane sulfonamide derivatives as EGFR inhibitors to overcome C797S-mediated resistance and EGFR double mutation” (Eur J Med Chem, 2024)
The source made the active and inactive calls. The calls are words filed in the database; no cut-off is given here.

What was measured:
NCI-H1975 [1] = assay: Antiproliferative activity against human NCI-H1975 cells assessed as inhibition of sphere formation incubated for 72 hrs by CCK8 assay; format: functional, cell-based; settings: NCI-H1975, 72 h
[2] = Toxicity in nude mouse allografted with mouse BaF3 cells assessed as damage in spleen at 50 mg/kg, po for 7 days by H and E staining based analysis; format: organism-based; settings: in vivo, 168 h, time 7 day
[3] = Toxicity in nude mouse allografted with mouse BaF3 cells assessed as animal abnormality at 50 mg/kg, po measured for 7 days; format: organism-based; settings: in vivo, 168 h, time 7 day
[4] = Toxicity in nude mouse allografted with mouse BaF3 cells assessed as lesion in heart at 50 mg/kg, po for 7 days by H and E staining based analysis; format: organism-based; settings: in vivo, 168 h, time 7 day
BaF3 [5] = assay: Induction of cell death in inner region of cell spheres of mouse BaF3 cells harboring EGFR L858R/T790M/C797S mutant at 10 nM by Calcein AM/PI staining based analysis; format: functional
BaF3 [6] = assay: Inhibition of fibronectin activation in mouse BaF3 cells allografted in nude mouse at 50 mg/kg, po for 7 days; format: functional, organism-based; settings: time 7.0 day
NCI-H1975 [7] = assay: Inhibition of cell migration in human NCI-H1975 cells by transwell assay; format: functional, cell-based
NCI-H1975 [8] = assay: Inhibition of cell migration in human NCI-H1975 cells at 10 nM incubated for 24 hrs by scratch healing assay relative to control; format: functional
[9] = Toxicity in nude mouse allografted with mouse BaF3 cells assessed as damage in heart at 50 mg/kg, po for 7 days by H and E staining based analysis; format: organism-based; settings: in vivo, 168 h, time 7 day
BaF3 [10] = assay: Inhibition of EGFR L858R/T790M/C797S mutant in mouse BaF3 cells assessed as reduction in ERK phosphorylation incubated for 24 hrs by Western blot analysis; format: cell-based; settings: dose <= 100.0 nM
[11] = Cytotoxicity against VEGF-stimulated human HUVEC cells; format: toxicity, cell-based
NCI-H1975 [12] = assay: Inhibition of colony formation in human NCI-H1975 cells at 5 to 10 nM by crystal violet staining based analysis; format: functional, cell-based; settings: dose 5-10 nM
BaF3 [13] = assay: Inhibition of neovascularization in mouse BaF3 cells allografted in nude mouse at 50 mg/kg, po for 7 days; format: functional, organism-based; settings: time 7.0 day
[14] = Toxicity in nude mouse allografted with mouse BaF3 cells assessed as lesion in spleen at 50 mg/kg, po for 7 days by H and E staining based analysis; format: organism-based; settings: in vivo, 168 h, time 7 day
[15] = Toxicity in nude mouse allografted with mouse BaF3 cells assessed as damage in kidney at 50 mg/kg, po for 7 days by H and E staining based analysis; format: organism-based; settings: in vivo, 168 h, time 7 day
BaF3 [16] = assay: Antiproliferative activity against mouse BaF3 cells harboring EGFR C797S/Del19/T790M mutant; format: functional, cell-based
[17] = Cytotoxicity against human HUVEC cells; format: toxicity, cell-based
[18] = Toxicity in nude mouse allografted with mouse BaF3 cells assessed as damage in lung at 50 mg/kg, po for 7 days by H and E staining based analysis; format: organism-based; settings: in vivo, 168 h, time 7 day
BaF3 [19] = assay: Induction of apoptosis in mouse BaF3 cells harboring EGFR L858R/T790M/C797S mutant assessed as late apoptotic cells at 10 nM incubated for 24 hrs by Annexin V-FITC/PI staining based flow cytometry (reference value: 0.02 %); format: functional
[20] = biological target: Epidermal growth factor receptor (Homo sapiens, UniProt P00533, C797S/EX19DEL/T790M); assay: Inhibition of EGFR C797S/T790M/Del19 mutant (unknown origin)
Chain of Epidermal growth factor receptor (Homo sapiens, UniProt P00533, C797S/EX19DEL/T790M) (P00533 whole entry, looked up, stated change not applied): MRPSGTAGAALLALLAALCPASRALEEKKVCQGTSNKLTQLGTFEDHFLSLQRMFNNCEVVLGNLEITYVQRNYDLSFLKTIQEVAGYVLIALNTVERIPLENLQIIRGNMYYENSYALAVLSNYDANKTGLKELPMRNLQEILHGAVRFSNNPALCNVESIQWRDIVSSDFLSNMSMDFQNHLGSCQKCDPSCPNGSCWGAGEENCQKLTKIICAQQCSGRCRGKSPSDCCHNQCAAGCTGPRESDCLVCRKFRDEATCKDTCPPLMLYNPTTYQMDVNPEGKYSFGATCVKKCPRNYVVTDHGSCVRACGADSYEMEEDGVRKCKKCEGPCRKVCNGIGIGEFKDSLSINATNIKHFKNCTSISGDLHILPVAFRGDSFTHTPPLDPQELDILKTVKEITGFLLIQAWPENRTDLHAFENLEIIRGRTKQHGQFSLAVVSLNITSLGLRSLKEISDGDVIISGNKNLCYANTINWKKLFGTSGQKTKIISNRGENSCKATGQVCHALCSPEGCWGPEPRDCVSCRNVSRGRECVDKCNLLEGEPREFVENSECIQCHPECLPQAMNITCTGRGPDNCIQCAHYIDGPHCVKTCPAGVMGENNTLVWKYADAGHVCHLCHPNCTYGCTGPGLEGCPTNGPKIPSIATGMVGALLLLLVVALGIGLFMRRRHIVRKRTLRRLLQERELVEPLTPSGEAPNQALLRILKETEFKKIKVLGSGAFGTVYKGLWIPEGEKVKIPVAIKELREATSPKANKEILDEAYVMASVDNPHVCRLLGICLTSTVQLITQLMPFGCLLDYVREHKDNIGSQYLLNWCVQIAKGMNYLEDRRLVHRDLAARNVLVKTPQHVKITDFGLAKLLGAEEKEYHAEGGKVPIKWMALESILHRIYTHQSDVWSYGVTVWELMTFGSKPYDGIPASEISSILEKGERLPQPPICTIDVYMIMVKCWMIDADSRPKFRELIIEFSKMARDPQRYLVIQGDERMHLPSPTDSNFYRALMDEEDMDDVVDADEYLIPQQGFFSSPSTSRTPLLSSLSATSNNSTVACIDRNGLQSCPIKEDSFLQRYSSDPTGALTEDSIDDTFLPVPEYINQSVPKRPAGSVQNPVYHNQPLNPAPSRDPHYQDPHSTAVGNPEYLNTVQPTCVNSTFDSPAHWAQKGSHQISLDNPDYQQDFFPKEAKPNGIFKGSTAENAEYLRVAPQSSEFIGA

BaF3 [21] = assay: Induction of cell death in outer layer of cell spheres of mouse BaF3 cells harboring EGFR L858R/T790M/C797S mutant at 1 nM by Calcein AM/PI staining based analysis; format: functional
Homo sapiens = organism: Homo sapiens; assay: Binding affinity to FGFR (unknown origin) at 100 nM by kinase profiling analysis
NCI-H1975 [22] = assay: Antitumor activity against human NCI-H1975 cells xenografted in nude mouse at 50 mg/kg, po measured for 7 days relative to control; format: functional; settings: NCI-H1975, 168 h, time 7 day, read-out: TGI
[23] = biological target: T1, Epidermal growth factor receptor (Homo sapiens, UniProt P00533); assay: Inhibition of wild-type EGFR (unknown origin)
T1 sequence (P00533 whole entry): as the sequence (P00533 whole entry, looked up, stated change not applied) above

[24] = biological target: T1, Epidermal growth factor receptor; assay: Inhibition of EGFR in human NCI-H1975 cells assessed as reduction in ERK phosphorylation incubated for 24 hrs by Western blot analysis; format: cell-based; settings: dose <= 50.0 nM

- IC50 (NCI-H1975 [1]): 33.8 nM
- IC50 (BaF3 [16]): 3 nM
- IC50 [20]: 0.42 nM
- Activity (Homo sapiens): Active
- IC50 [23]: 70.7 nM
- inhibition [24]: Dose-Dependent Effect
SMILES: CN1CCCN(c2ccc(Nc3ncc(Br)c(Nc4ccccc4NS(=O)(=O)C4CC4)n3)cc2)CC1
- Activity [2]: Non-Toxic
- Activity [3]: Non-Toxic
- Activity [4]: Non-Toxic
- Activity (BaF3 [5]): Active
- inhibition (BaF3 [6]): Active
- inhibition (NCI-H1975 [7]): Active
- inhibition at 0.01 µM (NCI-H1975 [8]): 92%
- Activity [9]: Non-Toxic
- inhibition (BaF3 [10]): Dose-Dependent Effect
- IC50 [11]: 799 nM
- inhibition (NCI-H1975 [12]): Active
- inhibition (BaF3 [13]): Active
- Activity [14]: Non-Toxic
- Activity [15]: Non-Toxic
- IC50 [17]: 2520 nM
- Activity [18]: Non-Toxic
- Activity (BaF3 [19]): 69.42%
- Activity (BaF3 [21]): Active
- inhibition in vivo at 50 mg/kg (NCI-H1975 [22]): 83.5%
